The values below come from the METLIN SMRT retention time set (Domingo-Almenara et al. 2019).

The nature of the series: gradient 5% acetonitrile 3 min, to 50% in 2 min, to 85% in 15 min, held 3 min, 100 µL/min. As to conditions: column: Zorbax Extend-C18 2.1 x 50 mm; eluents: water / acetonitrile, 0.1% formic acid. The gist of the method: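 Mixtures of ~100 pure standards were chromatographed on a Zorbax Extend-C18 column (2.1 × 50 mm, 1.8 μm) at 100 μL/min using water and acetonitrile, each with 0.1% formic acid. Detection used a quadrupole time-of-flight mass spectrometer in positive and negative ionization mode, and data collection spanned 3 months. Retention time was obtained from adduct peaks picked computationally and each checked manually.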
The molecule `COc1ccccc1-c1noc(Cn2c(=O)n(-c3ccccc3C)c(=O)c3sccc32)n1` showed an RP-LC retention time of 910 s.

Regarding `CCCCN1N=C(C(=O)N2CCOCC2)S(=O)(=O)c2cc(Cl)ccc21`, the RP-LC retention time is 862 s.

Take `CCn1nc(-c2ccccc2)c(-c2ccccc2)c(C(=O)OC)c1=O`: the RP-LC retention time was determined as 973 s.

Regarding `Cc1ccc(S(=O)(=O)Nc2cccc(-c3cn4ccccc4n3)c2)cc1[N+](=O)[O-]`, the RP-LC retention time is 681 s.

For `CCN1C(=O)COc2ccc(-c3noc(-c4cccc(Cl)c4)n3)cc21`, the RP-LC retention time turned out to be 1250 s.

`CCOC(=O)c1ccc2nc(C)cc(NC(=O)c3cccs3)c2c1`: the RP-LC retention time is 607 s.

On to `COc1ccc(-c2nnc(SCc3cc(=O)n4c(C)csc4n3)o2)cc1OC`, for which the RP-LC retention time worked out at 762 s.

The molecule `O=C(Cc1cccs1)N1CCN(c2cnn3cnnc3c2)CC1` came in with an RP-LC retention time of 585 s.

In turn, `CCOc1ccccc1C(=O)NC1(c2nc(-c3cccnc3)no2)CCCCC1` yielded an RP-LC retention time of 1050 s.

Consider `Cc1nc(C2CCN(C(=O)CCc3c[nH]c4ccccc34)CC2)n[nH]1`, for which the RP-LC retention time was 603 s.

The molecule `COc1ccc(-c2noc(Cn3ccnc3C)n2)cc1OC` gave an RP-LC retention time of 589 s.

For `CC(=O)NCc1csc(C2CCN(C(=O)c3cc(F)ccc3F)CC2)n1`, the RP-LC retention time is 652 s.

`CC1=C(c2ccc(C)c(C)c2)S(=O)(=O)N=C1N1CCCN(C(=O)c2ccoc2)CC1` returned an RP-LC retention time of 764 s.

The molecule `CCOc1ccc(NC(=O)NCC(c2cccnc2)c2c[nH]c3ccccc23)cc1` (stereo not given) returned an RP-LC retention time of 670 s.

`Cc1cc(OCC(O)Cn2c(C3CC3)nc3ccccc32)cc(C)c1Cl` (stereo not given) displayed an RP-LC retention time of 795 s.

`O=C(Cc1cccs1)NCC1CCS(=O)(=O)C1` (stereo not given) had an RP-LC retention time of 586 s.

In turn, `Clc1cccc(-c2nnc(-c3nc(N4CCOCC4)c4ccccc4n3)o2)c1` gave an RP-LC retention time of 973 s.

Regarding `CCCNC(=O)N(C1CCOCC1)C1CCN(C(=O)CCc2c[nH]c3ccccc23)CC1`, the RP-LC retention time worked out at 730 s.

`Cc1ccc(S(=O)(=O)N2CCCC2c2nc(-c3ccc(Cl)cc3)no2)cc1C` (stereo not given) displayed an RP-LC retention time of 1300 s.

In turn, `CC(=O)N1CCc2sc(C(=O)NCc3ccccc3Br)cc2C1` displayed an RP-LC retention time of 770 s.

`COc1ccc(-c2noc(N3CCC(C(=O)Nc4cc(C)on4)CC3)n2)cc1OC` came in with an RP-LC retention time of 784 s.

`CC(=O)N1CCCSc2ccc(S(=O)(=O)N3CCN(c4cccc(Cl)c4)CC3)cc21` came in with an RP-LC retention time of 1050 s.

`O=C(Cn1cnc(-c2cccs2)cc1=O)NCc1ccccc1OC(F)(F)F`: the RP-LC retention time worked out at 801 s.

In the case of `CN(C)C(=O)c1ccc2c(c1)N(CC(=O)NCCN1CCCCCC1)C(=O)C1CCCCN21` (stereo not given), the RP-LC retention time was found to be 615 s.

With `CCN(Cc1ccccc1)Cc1cc(=O)n2cc(Cl)ccc2n1`, the RP-LC retention time amounted to 616 s.

`O=S(=O)(c1ccc(Cl)cc1)N1CCC2(CC1)NCCN=C2NCc1ccc(F)cc1` had an RP-LC retention time of 744 s.

As for `CCCN1CCN(CCNC(=O)C2CCCN(c3ncc(-c4ccc(F)cc4)cn3)C2)CC1` (stereo not given), the RP-LC retention time was 641 s.

Take `CCC(=O)N1CCc2cc(C)c(S(=O)(=O)NC(C)C)cc21`: the RP-LC retention time was 796 s.

`COc1ccc(C(=O)N2CCC3(CC2)NC(=O)c2cccc(Cl)c2N3)cc1`: the RP-LC retention time is 738 s.

With `CCCc1c(C(=O)O)nnn1-c1cccc(Cl)c1`, the RP-LC retention time was 783 s.

`O=C(Cn1cccc(-c2nc(-c3ccc(Cl)cc3)no2)c1=O)N1CCCCC1` yielded an RP-LC retention time of 855 s.

For `CCOc1ccc(CC(=O)N2CCN(c3ccc(-c4nc(C)cs4)cn3)CC2)cc1`, the RP-LC retention time is 883 s.

Molecule `CCC(=O)N1CCc2c(sc3ncnc(N4CCN(C)CC4)c23)C1` gave an RP-LC retention time of 546 s.

Consider `CCC(=O)Nc1c(C)noc1/C=C/c1ccc(S(=O)(=O)N2CCN(c3ccccn3)CC2)s1`, for which the RP-LC retention time was found to be 677 s.

As to `NC(=O)C1CCN(C(=O)c2ccc3c(c2)CCCN3S(=O)(=O)c2ccc(Cl)cc2)CC1`, the RP-LC retention time is 741 s.

For `Cc1ccc(-c2noc(C3CC(=O)N(c4ccc5c(c4)OCCO5)C3)n2)cc1` (stereo not given), the RP-LC retention time was 943 s.

As for `Cc1ccc(C)c(S(=O)(=O)N2CCC(n3cnnc3C(C)C)CC2)c1`, the RP-LC retention time was found to be 768 s.

Molecule `CCOc1ccc(N2CC(NC(=O)NCCc3ccc(S(N)(=O)=O)cc3)CC2=O)cc1` (stereo not given) displayed an RP-LC retention time of 617 s.

In the case of `O=C(NC1CC1)C1CCN(Cc2cc3ccccc3n2Cc2cccc(Cl)c2)CC1`, the RP-LC retention time amounted to 730 s.

In turn, `CC(C)CN1CCN(C(=O)C2CC(=O)N(CCc3ccccc3)C2)CC1` (stereo not given) displayed an RP-LC retention time of 580 s.

As for `CN1CCCn2cc(S(=O)(=O)Nc3ccc(F)cc3)cc2C1=O`, the RP-LC retention time worked out at 670 s.

Consider `Cc1noc(C)c1CN1CCN(C(=O)NCc2ccc(F)cc2)CC1`, for which the RP-LC retention time was determined as 598 s.

As for `COc1cc(NC(=O)CN2C(=O)C(C)(C)c3ccccc32)cc(OC)c1`, the RP-LC retention time amounted to 876 s.

In the case of `O=C(CCc1c(-c2ccccc2)nc2ccccn12)NCc1cccc(Cl)c1`, the RP-LC retention time was 681 s.

On to `CC(CCc1ccccc1)NC(=O)Cn1nc2n(c1=O)CCCC2` (stereo not given), for which the RP-LC retention time was found to be 716 s.

`Cc1c(C(=O)C(=O)N2CCc3ccccc32)c2ccccc2n1C` yielded an RP-LC retention time of 902 s.

`O=C(NCc1cccnc1)C1CCCN(S(=O)(=O)c2cc(-c3noc(C4CCC4)n3)cs2)C1` (stereo not given) registered an RP-LC retention time of 825 s.

For the molecule `CCc1cc(=O)n(CC(=O)N2CCc3ccccc32)c(N2CCOCC2)n1`, the RP-LC retention time turned out to be 734 s.

Regarding `COc1ccc2nc(C(=O)NCc3ccccc3F)cn2n1`, the RP-LC retention time worked out at 806 s.

The molecule `Cc1ccc(F)c(NS(=O)(=O)c2cn(CC(C)C)c3ncccc23)c1` yielded an RP-LC retention time of 932 s.

With `Cc1sc2ncnc(SCC(=O)Nc3ccc(S(N)(=O)=O)cc3)c2c1C`, the RP-LC retention time turned out to be 730 s.

As for `CCC(CC)C(=O)Nc1nc(-c2ccc(Cl)cc2)cs1`, the RP-LC retention time came out at 1150 s.

Molecule `CC(C)Cc1nc2nccc(-c3ccccc3)n2n1` gave an RP-LC retention time of 877 s.

As for `Cn1nc(C(=O)N2CCCC2)c2c1CCN(C(=O)CCC(=O)NCCC1=CCCCC1)C2`, the RP-LC retention time is 734 s.

Molecule `CCOC(=O)C1CCC(CNC(=O)Nc2ccc(-c3nc(-c4ccccc4)co3)cc2)CC1` (stereo not given) had an RP-LC retention time of 1100 s.

Molecule `COc1ccc(NC(=O)C2CCCN(c3nnc4ccc(Cl)cn34)C2)cc1OC` (stereo not given) registered an RP-LC retention time of 701 s.

In turn, `COc1ccc(F)cc1S(=O)(=O)NCCOc1ccc(-c2ccco2)nn1` had an RP-LC retention time of 742 s.

Turning to `O=C(NC1CCSC1=O)c1ccccc1` (stereo not given), the RP-LC retention time amounted to 638 s.

The molecule `COc1ccc(CN2CCC([C@@H]3CNC[C@H]3CO)CC2)c(OC)c1` returned an RP-LC retention time of 549 s.

In turn, `COc1ccccc1CNc1nccc(-n2ccc(C)n2)n1` returned an RP-LC retention time of 805 s.

`O=C(NC1CCCCC1)N1CCC(OC2CCN(Cc3ccccc3)CC2)CC1` had an RP-LC retention time of 663 s.

With `CCN1c2ccccc2C(=O)NC12CCN(C(=O)Nc1ccccc1F)CC2`, the RP-LC retention time was determined as 748 s.

The molecule `CC(C)c1noc(-c2cccnc2N2CCCN(Cc3ccc(F)cc3)CC2)n1` showed an RP-LC retention time of 712 s.

Molecule `COc1ccc(NC(=O)CN2CCN(Cc3ccc(F)cc3)C(=O)C2=O)cc1` displayed an RP-LC retention time of 697 s.

`COc1ccccc1Cn1c(COc2ccccc2OC)nc2ccccc21` registered an RP-LC retention time of 726 s.

In turn, `O=S(=O)(Nc1nc2ccc(S(=O)(=O)N3CCCC3)cc2s1)c1ccc(F)cc1` returned an RP-LC retention time of 773 s.

Take `NC(=O)C1CCN(c2ncnc3c2cnn3-c2ccc(Cl)cc2)CC1`: the RP-LC retention time worked out at 732 s.

`COc1ccc(-c2nc(Cn3ccn4nc(-c5ccccc5)cc4c3=O)c(C)o2)c(OC)c1` displayed an RP-LC retention time of 1030 s.

Take `CCCCNC(=O)C1CCCN(c2cc(=O)n(C)c(=O)n2C)C1` (stereo not given): the RP-LC retention time stood at 641 s.

`CC1(C)CC(=O)C2=C(C1)Nc1ccccc1N(CC(=O)Nc1ccccc1)C2c1ccc(F)cc1` (stereo not given) yielded an RP-LC retention time of 938 s.

Molecule `O=C(Cn1cccc(-c2nc(-c3ccccc3)no2)c1=O)Nc1ccccc1Cl` returned an RP-LC retention time of 885 s.

Regarding `COC(=O)c1cccc(C(=O)Nc2ccc(Cl)cc2F)n1`, the RP-LC retention time came out at 996 s.

For `CCn1c(=O)n(-c2ccc(F)cc2)c2nc(-c3ccc(F)cc3F)nc(C(N)=O)c21`, the RP-LC retention time came to 1000 s.

For `Cc1cccc(N2CCN([C@H]3CS(=O)(=O)C[C@@H]3S(=O)(=O)c3ccccc3)CC2)c1C`, the RP-LC retention time was found to be 1060 s.

`O=C(Cc1csc(-c2ccccc2)n1)Nc1nc(-c2ccc(F)cc2)cs1` had an RP-LC retention time of 1140 s.

The molecule `COCCN1C(=O)CS(=O)(=O)C12CCN(C(=O)C1(c3ccc(OC)cc3)CC1)CC2` showed an RP-LC retention time of 661 s.

In turn, `O=C(c1cccs1)N1CC(Oc2ccc(-c3nc(-c4ccccc4)no3)cc2)C1` displayed an RP-LC retention time of 1170 s.

On to `COc1ccc(NC(=O)N2CCN(c3cnn4c(C)nnc4c3)CC2)c(OC)c1`, for which the RP-LC retention time was determined as 577 s.

Regarding `Cc1ccc(NC(=O)c2c(O)c3cccnc3n(-c3ccc(F)cc3)c2=O)c(F)c1`, the RP-LC retention time was 1330 s.

For `CC(C)c1noc(C2CCCN(S(=O)(=O)c3cn(C)cn3)CCC(=O)NCC2)n1` (stereo not given), the RP-LC retention time is 640 s.
